Measurements: patent US20250281462A1, “THERAPEUTICALLY EFFECTIVE ORAL ADMINISTRATION OF A 2 ARYLBENZIMIDAZOLE” (Tranquis Therapeutics, Inc., priority 2021, published 2025)
“And” between values parts separate entries of the source, which are not always exact repeats. Equal values may be shown once. Read-outs that look alike come from different tables or passages of the source.

Assay: Plasma concentrations of TQS-168 and TQS-621 after single oral dose 50 mg/kg in mice, three formulations
Type: in vivo
Settings: for concentration at 0.5 h / concentration at 1 h / concentration at 2 h / concentration at 4 h / concentration at 8 h / concentration at 12 h / concentration at 0.25 h: male, C57BL/6, mouse, plasma, po, read-out: Calculated Concentration in plasma; for concentration at 0.5 h / concentration at 1 h / concentration at 2 h / concentration at 4 h / concentration at 8 h / concentration at 12 h / concentration at 0.25 h / Calculated Concentration in plasma: mice
Method: In a second experiment, mice were administered 50 mg/kg TQS-168 by oral gavage. For Group 1, TQS-168 was prepared at a concentration of 5.0 mg/mL in a suspension with […] in PBS. For Group 2, TQS-168 was prepared at a concentration of 5.0 mg/mL as a solution in 10 polyethylene glycol (PEG) 400|30 Kleptose (Roquete)|60% water.
Plasma exposures for Group 1 mice (ng/mL) are presented in Table 2 and for Group 2 mice in Table 3.
C57BL/6 male mice were administered a single dose of TQS-168 at 50 mg/kg using one of three formulations: Group 1-5.0 mg/ml suspension in 0.5% methylcellulose in PBS; Group 2-5.0 mg/ml solution in PEG400 (Fluka) 10%|Kleptose (Roquette) 30%|sterile water 60%; Group 3-5.0 mg/ml suspension in Labrafil M 1944 CS (Gattefosse) 30%|Masine CC (Gattefosse) 5%|Miglyol 812N 10%|sterile water 55%.
Plasma concentrations of TQS-168 and TQS-621 were measured overtime.

[1] = mice plasma, TQS-168 50 mg/kg p.o., Group 1 (suspension, 0.5% methylcellulose in PBS), individual mouse, 50 mg/kg
[2] = mice plasma, TQS-168 50 mg/kg p.o., Group 2 (solution, PEG400/Kleptose/water), individual mouse, 50 mg/kg
[3] = mice plasma, TQS-168 50 mg/kg p.o., Group 3 (suspension, Labrafil/Masine/Miglyol/water), individual mouse, 50 mg/kg

Work on CC(C)(C)c1ccc(-c2nc3ccccc3[nH]2)cc1 [TQS-168, 2-(4-tert-butylphenyl)-1H-benzimidazole] yielded a concentration at 0.5 h (50 mg/kg, 50 mg/kg p.o., Group 1 (suspension, methylcellulose in PBS), 0.5 hr, mean) of 0.949 µg/mL, a concentration at 1 h (50 mg/kg, 50 mg/kg p.o., Group 1 (suspension, methylcellulose in PBS), 1 hr, individual mouse) of 1.28 µg/mL and a concentration at 1 h (50 mg/kg, 50 mg/kg p.o., Group 1 (suspension, methylcellulose in PBS), 1 hr, mean) of 1.1 µg/mL. It also gave a concentration at 2 h (50 mg/kg, 50 mg/kg p.o., Group 1 (suspension, methylcellulose in PBS), 2 hr, mean) of 0.776 µg/mL, a concentration at 4 h (50 mg/kg, 50 mg/kg p.o., Group 1 (suspension, methylcellulose in PBS), 4 hr, individual mouse) of 0.435 µg/mL and a concentration at 4 h (50 mg/kg, 50 mg/kg p.o., Group 1 (suspension, methylcellulose in PBS), 4 hr, mean) of 0.435 µg/mL. For the same compound, the concentration at 8 h (50 mg/kg, 50 mg/kg p.o., Group 1 (suspension, methylcellulose in PBS), 8 hr, mean) was 0.446 µg/mL, the concentration at 12 h (50 mg/kg, 50 mg/kg p.o., Group 1 (suspension, methylcellulose in PBS), 12 hr, mean) was 0.187 µg/mL and the concentration at 0.25 h (50 mg/kg, 50 mg/kg p.o., Group 2 (solution, PEG 400/Kleptose/water), 0.25 hr, individual mouse) was 0.656 µg/mL. The concentration at 0.25 h (50 mg/kg, 50 mg/kg p.o., Group 2 (solution, PEG 400/Kleptose/water), 0.25 hr, mean) was 0.9 µg/mL, the concentration at 0.5 h (50 mg/kg, 50 mg/kg p.o., Group 2 (solution, PEG 400/Kleptose/water), 0.5 hr, individual mouse) was 1.95 µg/mL and the concentration at 0.5 h (50 mg/kg, 50 mg/kg p.o., Group 2 (solution, PEG 400/Kleptose/water), 0.5 hr, mean) was 1.96 µg/mL. For the same compound, the concentration at 1 h (50 mg/kg, 50 mg/kg p.o., Group 2 (solution, PEG 400/Kleptose/water), 1 hr, individual mouse) was 1.52 µg/mL, the concentration at 1 h (50 mg/kg, 50 mg/kg p.o., Group 2 (solution, PEG 400/Kleptose/water), 1 hr, mean) was 1.99 µg/mL and the concentration at 2 h (50 mg/kg, 50 mg/kg p.o., Group 2 (solution, PEG 400/Kleptose/water), 2 hr, individual mouse) was 1.81 µg/mL. The concentration at 2 h (50 mg/kg, 50 mg/kg p.o., Group 2 (solution, PEG 400/Kleptose/water), 2 hr, mean) was 1.76 µg/mL, the concentration at 4 h (50 mg/kg, 50 mg/kg p.o., Group 2 (solution, PEG 400/Kleptose/water), 4 hr, individual mouse) was 1.33 µg/mL and the concentration at 4 h (50 mg/kg, 50 mg/kg p.o., Group 2 (solution, PEG 400/Kleptose/water), 4 hr, mean) was 1.2 µg/mL. It also gave a concentration at 8 h (50 mg/kg, 50 mg/kg p.o., Group 2 (solution, PEG 400/Kleptose/water), 8 hr, individual mouse) of 0.374 µg/mL, a concentration at 8 h (50 mg/kg, 50 mg/kg p.o., Group 2 (solution, PEG 400/Kleptose/water), 8 hr, mean) of 0.427 µg/mL and a concentration at 12 h (50 mg/kg, 50 mg/kg p.o., Group 2 (solution, PEG 400/Kleptose/water), 12 hr, individual mouse) of 0.185 µg/mL. For the same compound, the concentration at 12 h (50 mg/kg, 50 mg/kg p.o., Group 2 (solution, PEG 400/Kleptose/water), 12 hr, mean) was 0.161 µg/mL, the Cmax (mice plasma, 50 mg/kg p.o., Group 2 (solution), 50 mg/kg, read-out: Cmax) was 7.9 µM and the AUCInf [1] was 5.085 µg·h/mL and 14.196 µg·h/mL and 5.052 µg·h/mL. The AUClast [1] was 8.046 µg·h/mL and 4.822 µg·h/mL, the Cmax [1] was 1.38 µg/mL and 0.704 µg/mL and the t1/2 [1] was 1.74 h and 9.47 h and 1.70 h. For the same compound, the AUCInf [2] was 11.411 µg·h/mL and 11.446 µg·h/mL, the AUClast [2] was 11.058 µg·h/mL and 10.525 µg·h/mL and the Cmax [2] was 2.39 µg/mL and 2.07 µg/mL. For the same compound, the t1/2 [2] was 2.22 h and 3.41 h, the AUCInf [3] was 4.336 µg·h/mL and 3.877 µg·h/mL and the AUClast [3] was 3.924 µg·h/mL and 3.753 µg·h/mL. For the same compound, the Cmax [3] was 0.752 µg/mL and 0.42 µg/mL, the Tmax [3] was 8 h and the t1/2 [3] was 2.23 h and 1.43 h. For the same compound, the Cmax (mice plasma, TQS-168 50 mg/kg p.o., Group 3 (suspension, Labrafil/Masine/Miglyol/water), mean, 50 mg/kg) was 0.594 µg/mL, the “Calculated Concentration in plasma” value (50 mg/kg p.o., Group 1 (suspension, methylcellulose in PBS), 0.25 hr, individual mouse, 50 mg/kg) was 887 ng/mL and 485 ng/mL and the “Calculated Concentration in plasma” value (50 mg/kg p.o., Group 1 (suspension, methylcellulose in PBS), 0.5 hr, individual mouse, 50 mg/kg) was 848 ng/mL and 1380 ng/mL and 619 ng/mL. For the same compound, the “Calculated Concentration in plasma” value (50 mg/kg p.o., Group 1 (suspension, methylcellulose in PBS), 1 hr, individual mouse, 50 mg/kg) was 1310 ng/mL and 704 ng/mL, the “Calculated Concentration in plasma” value (50 mg/kg p.o., Group 1 (suspension, methylcellulose in PBS), 2 hr, individual mouse, 50 mg/kg) was 839 ng/mL and 1050 ng/mL and 440 ng/mL and the “Calculated Concentration in plasma” value (50 mg/kg p.o., Group 1 (suspension, methylcellulose in PBS), 4 hr, individual mouse, 50 mg/kg) was 479 ng/mL and 391 ng/mL. For the same compound, the “Calculated Concentration in plasma” value (50 mg/kg p.o., Group 1 (suspension, methylcellulose in PBS), 8 hr, individual mouse, 50 mg/kg) was 254 ng/mL and 603 ng/mL and 480 ng/mL, the “Calculated Concentration in plasma” value (50 mg/kg p.o., Group 1 (suspension, methylcellulose in PBS), 12 hr, individual mouse, 50 mg/kg) was 18.0 ng/mL and 450 ng/mL and 93.9 ng/mL and the “Calculated Concentration in plasma” value (50 mg/kg p.o., Group 1 (suspension, methylcellulose in PBS), 24 hr, individual mouse) was “BLOQ”. For the same compound, the “Calculated Concentration in plasma” value (50 mg/kg p.o., Group 2 (solution, PEG 400/Kleptose/water), 0.25 hr, individual mouse, 50 mg/kg) was 874 ng/mL and 1170 ng/mL, the “Calculated Concentration in plasma” value (50 mg/kg p.o., Group 2 (solution, PEG 400/Kleptose/water), 0.5 hr, individual mouse, 50 mg/kg) was 2070 ng/mL and 1860 ng/mL and the “Calculated Concentration in plasma” value (50 mg/kg p.o., Group 2 (solution, PEG 400/Kleptose/water), 1 hr, individual mouse, 50 mg/kg) was 2390 ng/mL and 2070 ng/mL. For the same compound, the “Calculated Concentration in plasma” value (50 mg/kg p.o., Group 2 (solution, PEG 400/Kleptose/water), 2 hr, individual mouse, 50 mg/kg) was 1830 ng/mL and 1630 ng/mL, the “Calculated Concentration in plasma” value (50 mg/kg p.o., Group 2 (solution, PEG 400/Kleptose/water), 4 hr, individual mouse, 50 mg/kg) was 1330 ng/mL and 949 ng/mL and the “Calculated Concentration in plasma” value (50 mg/kg p.o., Group 2 (solution, PEG 400/Kleptose/water), 8 hr, individual mouse, 50 mg/kg) was 329 ng/mL and 579 ng/mL. For the same compound, the “Calculated Concentration in plasma” value (50 mg/kg p.o., Group 2 (solution, PEG 400/Kleptose/water), 12 hr, individual mouse, 50 mg/kg) was 110 ng/mL and 187 ng/mL and the “Calculated Concentration in plasma” value (50 mg/kg p.o., Group 2 (solution, PEG 400/Kleptose/water), 24 hr, individual mouse) was “BLOQ”.
